The test system of test [1] is HT29SN-38 cells. Put plainly: 3H-SN-38 uptake in cell monolayers. Type of test: cell-based, human. The conditions noted are these: HT29SN-38 monolayers; for cellular accumulation of 3H-SN-38: SCO-101 25 µM, Ko-143 0.5 µM, ZSQ 0.5 µM, vs control (HBSS). On the procedure:
Cells were seeded at a density of 1.8 × 10^4 cells/well in 96-well plates and sub-cultured for 48 h. Drugs were dissolved in HBSS transport buffer (HBSS, 0.05% BSA, 10 mM HEPES, pH 7.4) at different concentrations. All treatments were investigated in technical triplicates. On the day of the experiments, the culture medium was exchanged with 100 μL transport buffer and cells incubated for 15 min at 37 °C. Next, the blank transport buffer was exchanged with 50 μL transport buffer containing the different compounds (2X of final concentrations) and incubated for an additional 15 min at 37 °C. The uptake experiment was started by adding 50 μL of 2 μCi/mL ^3H-SN38 and stopped after 15 min of incubation at 37 °C by removing the transport buffer from all wells. Cell monolayers were washed twice by adding/removing ice-cold transport buffer and lysed for 15 min at RT in 100 μL 0.1% TritonX-100. Cell lysates were transferred to scintillation vials containing 2 mL of scintillation fluid (Ultima Gold, PerkinElmer). Each well was washed with 100 μL purified water (milliQ), which was also transferred to respective scintillation vials. The radioactivity in each scintillation vial was measured by means of scintillation counting (Tri-Carb 2910 TR, PerkinElmer, Waltham, MA, USA).

Test [2] relates to HT29PAR cells. The experiment in a line: Cell viability assay (MTT / CCK-8), drug-sensitive HT29. Type of test: cell-based, human. On the procedure: (§1) Cells were seeded at a density of 0.2–1 × 10^4 cells/well into 96-well plates. One day after seeding, treatments were performed in triplicate for 72 h, or as otherwise indicated in the relevant panel/figure legend and kept at 37 °C/5% CO2. Growth medium alone (“untreated” cells) or DMSO was used as a control.
(§2) For MTT assays, media were replaced at the final timepoint with 100 μL of 1:10 MTT reagent (0.5 mg/mL in PBS) diluted in growth medium, and plates were incubated for 3 h. A total of 100 μL/well of stop buffer (50 g Sodium Dodecyl Sulfate, 245 mL ddH2O, 5 mL 1N HCl) was added and plates incubated for 24 h to let colored formazan crystals develop. Optical densities (ODs) were measured with a PowerWave^TM Microplate spectrophotometer (BioTek, Winooski, VT, USA) at 570 nm and 670 nm (background).
(§3) For CCK-8 assays, 100 μL of 1:10 CCK-8 reagent (pevonedistat-treated HT29 cells) diluted in medium was added to each well and cells incubated for 1–2 h at 37 °C. OD values were measured at 450 nm with a VersaMax microplate spectrophotometer (Molecular Devices, San Jose, CA, USA).
(§4) Background values were subtracted prior to further analysis. The percentage of cell viability was expressed as relative values versus untreated cells as determined by the various assays. EC50/IC50 values were calculated using GraphPad Prism (v10.4.1) and the in-built non-linear regression [log (inhibitor) vs. response—variable slope (four parameters)] calculation. For determination of synergy scores, the online tool SynergyFinder+ (https://synergyfinder.org access date 15 February 2025) was employed following 4 × 4- or 6 × 6-matrix dose-escalation cell viability experiments. Doses of drugs are indicated in the relevant figure legends and ranges have been chosen based on the response of cells to single-drug dose-dependent experiments. Synergy scores were calculated using the ZIP model, which takes the advantages of both the Loewe additivity and the Bliss independence models, aiming at a systematic assessment of various types of drug interaction patterns that may arise in a high-throughput drug combination screening.

Test [3] relates to HT29SN-38 cells. The experiment in a line: Cell viability assay (MTT / CCK-8), SN-38-resistant HT29. In kind it is cell-based, human. On the procedure:
as §1, §2, §3, §4

The next test concerns HL-60PAR cells. The experiment in a line: Cell viability assay, HL-60 parental. Conditions: Homo sapiens, 96 h. Type of test: cell-based. On the procedure: as §1, §4
The next test deals with HL-60ABCG2 cells. The experiment in a line: Cell viability assay, ABCG2-expressing HL-60. Type of test: cell-based. The conditions noted are these: Homo sapiens, 96 h. As to the method: as §1, §4
Test [4] concerns HT29SN-38 cells. The experiment in a line: Cellular dye efflux assay (Hoechst 33342), resistant cells. In kind it is cell-based, human. Conditions: SCO-101 20 µM, Ko-143 1 µM, PSC833 1 µM. As to the method:
(§5) Twenty-four hours before the experiments, cells were seeded into 96-well Nunclon^TM plates at a density of 6000 (HT29), 7000 (PANC-1) or 8000 (LoVo) cells/well. The following day, cells were treated in triplicate with the relevant drugs at the indicated concentrations for 1 h. Next, 5 μg/mL Hoechst 33342 was added to the wells, and plates incubated at 37 °C for 30 min^−1 h. Cells were washed with cold PBS, treatments re-added and plates re-incubated at 37 °C for 30 min to 1 h. Plates were analyzed using a Celigo® (Nexcelom Bioscience, Lawrence, MA, USA) imaging cytometer. Data are expressed as percentages of fluorescence intensity, calculated through the following formula: % fluorescence intensity=Mean fluorescence intensity of sample/Mean fluorescence intensity of parental control×100
(§6) Fluorescent images were captured with an Olympus® IX71/TH4-200 microscope equipped with an Olympus® DP72 camera (Shinjuku, Tokyo, Japan), and cells were seeded at a 1.5 × 10^5 cells/well density and treated as described above.

Test [5] deals with HT29PAR cells. The experiment in a line: Cellular dye efflux assay (Hoechst 33342), parental cells. Type of test: cell-based, human. The conditions noted are these: SCO-101 20 µM, Ko-143 1 µM. As to the method: as §5, §6

As to `O[C@@H](COc1cccc2ncccc12)CN1CCN([C@@H]2c3ccccc3[C@@H]3[C@H](c4ccccc42)C3(F)F)CC1` [ZSQ], the “cellular accumulation of 3H-SN-38” value with HT29SN-38 cells [1] is given as “did not alter”.
Take `NS(=O)(=O)OC[C@@H]1C[C@@H](n2ccc3c(N[C@H]4CCc5ccccc54)ncnc32)C[C@@H]1O` [pevonedistat]: the half-inhibitory concentration (IC50) (usually the point on the concentration scale where inhibition reaches its midpoint) with HT29PAR cells [2] (Homo sapiens, HT-29, 72 h) is 130 nM; in the test with HT29SN-38 cells [3] (Homo sapiens, HT-29, 72 h), 3230 nM; in the test with HL-60PAR cells it was 5.4 nM; in the test on HL-60ABCG2 cells, over 1000 nM.
Turning to `O=C1c2c(O)ccc(O)c2C(=O)c2c(NCCNCCO)ccc(NCCNCCO)c21` [mitoxantrone], the IC50 turned out to be 40 nM with HL-60PAR cells and 580 nM in the test on HL-60ABCG2 cells.
With `CC[C@@]1(O)C(=O)OCc2c1cc1n(c2=O)Cc2cc3c(CN(C)C)c(O)ccc3nc2-1` [topotecan], the IC50 with HT29PAR cells [2] (Homo sapiens, HT-29, 72 h) is 60 nM; with HT29SN-38 cells [3] (Homo sapiens, HT-29, 72 h), 1360 nM; in the test on HL-60ABCG2 cells, over 1000 nM.
On to `CCc1c2c(nc3ccc(O)cc13)-c1cc3c(c(=O)n1C2)COC(=O)[C@]3(O)CC` [SN-38, reference compound], for which the IC50 came to 160 nM in the test with HT29PAR cells [2] (72 h) and 7290 nM in the test with HT29SN-38 cells [3] (72 h). The “cell viability after 24 h single treatment and drug washout” value in the test with HT29SN-38 cells [3] (SCO-101 15 μM or SN-38 0.5 μM alone, washout 48 h or 120 h) is “did not affect cell viability”.
In the case of `COc1ccc2c3c([nH]c2c1)[C@H](CC(C)C)N1C(=O)[C@H](CCC(=O)OC(C)(C)C)NC(=O)[C@@H]1C3` [Ko-143], the results for the H33342 dye accumulation result with HT29SN-38 cells [4] and in the test with HT29PAR cells [5] were “restored” and “No change”, respectively. Also, the “cellular accumulation of 3H-SN-38” value with HT29SN-38 cells [1] is reported as “increased”. The EC50 (as a rule, the midpoint of the concentration-response curve) with HT29SN-38 cells [1] (read-out: EC50, 3H-SN-38 uptake (regarded as IC50 of ABCG2 inhibition)) was 70 nM.
As for `C/C=C/C[C@@H](C)C(=O)[C@H]1C(=O)N[C@@H](C(C)C)C(=O)N(C)CC(=O)N(C)[C@@H](CC(C)C)C(=O)N[C@@H](C(C)C)C(=O)N(C)[C@@H](CC(C)C)C(=O)N[C@@H](C)C(=O)N[C@H](C)C(=O)N(C)[C@@H](CC(C)C)C(=O)N(C)[C@@H](CC(C)C)C(=O)N(C)[C@@H](C(C)C)C(=O)N1C` [PSC833], the H33342 dye accumulation result with HT29SN-38 cells [4] is reported as “No change”.
